Usually pKa stands for the negative logarithm of the acid dissociation constant. Low values mean a stronger acid or weaker base, high ones a weaker acid or stronger base. Take `C[NH+]1[C@H]2CC=C(C(=O)O)[C@@H]1CC2`: the pKa (acidic group) is 3.93. Regarding `C1CC2CC1NN2`, the pKa (basic group) amounted to 7.94. The compound `CN(C)c1ccccc1` yielded a pKa (basic group) of 5.1. Same read-out and setting: the same measure for `NCC1CCCCC1`: 10.5; for `Brc1ccc(Nc2ccccc2)cc1`: 1.73; for `CNCc1ccccn1`: 8.96.

`Nc1ccccc1B(O)O`: the pKa reads like this: (acidic group) 9.23; (basic group) 4.58. In turn, `COC(=O)c1ccc(O)cc1` yielded a pKa (acidic group) of 8.34.

Compound `Nc1cccc2cccc([N+](=O)[O-])c12` registered a pKa (basic group) of 2.79. The same measure, in the same setting: to `COc1ccccc1/C(=N/CCCN(C)C)c1ccccc1` belongs 9. Same read-out and setting: to `C[N+](C)(C)CCOC(=O)/C=C/c1c[nH]cn1` belongs 4.6. Take `O=c1[nH]c2ccccc2[nH]c1=O`: the pKa (acidic group) came to 9.67.

In the case of `N#Cc1ncnc2nc[nH]c12`, the pKa (acidic group) was 6.88. For the compound `C[NH2+]CCCN`, where the note is “basic group”, the pKa was determined as 8.66. On the same count and under the same terms, the same measure for `Cc1ccc2c(c1)N1CCN2CC1`: 5.83. As for `C/C(O)=C/C(N)=O`, under “acidic group”, the pKa came out at 9.46. For the compound `c1ccc2cc3[nH]cnc3cc2c1`, the pKa (acidic group) is 12.5 and the pKa (basic group) was 5.24. As to `O=C(O)[C@H]1C[C@@H]1c1ccccc1`, the pKa (acidic group) turned out to be 4.54.

Compound `CC(=O)c1ccc([O-])c(CN(C)C)c1` had a pKa (basic group) of 10. In turn, `O=C(Cc1ccccc1)c1cc[n+](Cc2ccccc2)cc1` came in with a pKa (acidic group) of 8.8. The same measure, in the same setting: to `Oc1cncc[nH+]1` belongs -0.1.

As to `CC1=NS(=O)(=O)c2cc(Cl)ccc2N1`, the pKa (acidic group) came to 8.62. The compound `C=C(C)C(=O)OCCN(CC)CC` came in with a pKa (basic group) of 8.66. The compound `CCC1(C)OC(=O)NC1=O` (centres undefined) had a pKa (acidic group) of 6. Compound `CCNc1cc[nH+]c([O-])n1` gave a pKa (basic group) of 4.58. As to `N[n+]1ccccc1O`, the pKa (acidic group) was determined as 2.1.

As for `CC(=O)/C=C(/C)O`, the pKa (acidic group) worked out at 7.64. As to `NNC(=O)C(F)(F)C1(F)OC(F)(F)C(F)(F)C1(F)F` (centres undefined), for the setting “acidic group”, the pKa is 8.26. With `CN(C)c1cccc2c(S(N)(=O)=O)cccc12`, the pKa (acidic group) came out at 9.9 and the pKa (basic group) amounted to 3.8.

On to `[S-]c1ccnc2ccccc12`, for which the pKa (basic group) was found to be 8.83. Where the note is “acidic group”, `CN(C)Cc1cc(OCc2ccccc2)ccc1O` returned a pKa of 11.5. Turning to `COc1ccc(N)cn1`, the pKa (basic group) was 4.24. On the same count and under the same terms, to `Oc1ccccc1CNC1CCCCC1` belongs 8.67.

On to `Oc1ccc(/N=N/c2nc3ccccc3s2)c2cccnc12`, for which, for the setting “acidic group”, the pKa turned out to be 7.2. For the setting “basic group”, `Cc1nc2cc([N+](=O)[O-])ccc2[nH]1` came in with a pKa of 5.16. As for `NC(=O)[C@@H](N)CSSC[C@H](N)C(N)=O`, under “acidic group”, the pKa came out at 6.41. Where the note is “basic group”, `Nc1ccc2c(c1O)Cc1ccccc1-2` gave a pKa of 4.82.

As to `CN(C)CC(Cl)CCl` (centres undefined), the pKa (basic group) came to 7.5. Still for that read-out and setting: the same measure for `O=C(CN1CCCCC1)Nc1ccccc1`: 7.85. On the same count and under the same terms, the same measure for `CCCCCN(CCO)CC(C)O` (centres undefined): 8.9; for `Cc1cc(N)nc(C)n1`: 6.85. With `O=S(=O)([O-])c1cc(O)c2[nH]ncc2c1`, the pKa (acidic group) turned out to be 8. On to `O=C1C=C(O)C(=O)c2ccccc21`, for which, under “acidic group”, the pKa was found to be 3.19.

Compound `O=c1cc(O)c2ccccc2o1` showed a pKa (acidic group) of 4.1. Under “basic group”, `CCc1c(C)nn(C)c1O` came in with a pKa of 3.5. The compound `CC(=O)c1cc(C)c(C)cc1O` had a pKa (acidic group) of 11.6. Where the note is “basic group”, `OCCn1cnc2ccccc21` yielded a pKa of 5.29.

For the compound `O[n+]1ccccc1`, the pKa (acidic group) was 0.77. In the case of `Cc1cccc(C2NCCS2)c1` (centres undefined), the pKa (basic group) amounted to 5.26. `Brc1cnc2c(ccc3cc(Br)cnc32)c1` yielded a pKa (basic group) of 3.9. The same measure, in the same setting: to `CCCc1ccccc1N` belongs 4.36. For `Oc1cccc[n+]1OCc1ccccc1`, the pKa (acidic group) is -1.7. In the case of `COC(=O)c1ncccn1`, the pKa (basic group) is -0.68. Take `N#CC(N)c1ccccc1` (centres undefined): the pKa (basic group) amounted to 4.4. On the same count and under the same terms, the same measure for `CCSC(=O)c1cccc(Br)c1`: -5.53; for `CCN(CC)C(C)C=C(c1cccs1)c1cccs1` (centres undefined): 8.9. On the same count and under the same terms, to `N#CCCNCCC#N` belongs 5.23; to `C[NH+](C)c1ccc(/C=C/c2ccncc2)cc1`, 3.42. `O=C(O)C(CO)c1ccccc1` (centres undefined) displayed a pKa (acidic group) of 4.23. The same measure, in the same setting: the same measure for `OCCC[n+]1cc(Br)c2ccccc2c1`: 12. Under “basic group”, `Nc1cccc2cc([N+](=O)[O-])ccc12` showed a pKa of 3.15. In the case of `NC(CO)CO`, the pKa (basic group) was determined as 8.63. `Nc1ccc(S(=O)(=O)NCc2ccco2)cc1`: the pKa reads like this: (acidic group) 10.9; (basic group) 2.25. The compound `Cc1ccc(OCC(=O)N[C@H]2C(=O)N3[C@H]2SC(C)(C)[C@H]3C(=O)O)cc1` gave a pKa (acidic group) of 2.8.

Compound `CN(C)CC(P(=O)([O-])[O-])P(=O)([O-])[O-]` had a pKa (basic group) of 8.98. Consider `COC(=O)/C=C(\O)c1ccncc1`, for which the pKa (acidic group) amounted to 7.51.

`CCCCCCC(=O)O` yielded a pKa (acidic group) of 4.86. In the case of `O=C(O)Cn1c2ccccc2c2ccccc21`, the pKa (acidic group) is 3.55. Regarding `c1ccc(-c2cccc(-c3ccccn3)n2)nc1`, the pKa (basic group) is 4.66.

The compound `OC(O)=C1SCc2ccccc21` yielded a pKa (acidic group) of 5.32. As for `C[NH+](C)CCC/N=C(\c1ccccc1)c1ccccc1O`, the pKa (basic group) is 3.31. Same read-out and setting: to `Brc1ccc(C2NCCS2)cc1` (centres undefined) belongs 5.05.

As to `Cc1cccc(C)c1OCC(=O)O`, the pKa (acidic group) was 3.36.

As for `CNCC(=O)Nc1c(C)cccc1C`, where the note is “basic group”, the pKa was 7.99. On the same count and under the same terms, the same measure for `CCN(CC)CC(C)Nc1c2ccc(Cl)cc2nc2ccc(OC)cc12` (centres undefined): 9.65. On to `O=C(O)c1cc([N+](=O)[O-])ccc1F`, for which, for the setting “acidic group”, the pKa was determined as 2.73. Same read-out and setting: the same measure for `O=C(NO)c1ccccc1O`: 7.39.

Compound `c1cnc2c(c1)ccc1[nH+]cccc12` had a pKa (basic group) of 1. With `CC[n+]1ccc([O-])nc1[S-]`, the pKa (basic group) was 8.7. As for `Cc1cc(C)nc(NS(=O)(=O)c2ccc([NH3+])cc2)n1`, the pKa (basic group) is -0.89. Same read-out and setting: the same measure for `CNc1ccnc([S-])n1`: 11.1.

`NNC(=O)c1cccnc1`: the pKa is 11.5 (acidic group) and 3.27 (basic group). Consider `Cc1n[nH]c2c(Nc3ccccc3)ncnc12`, for which the pKa (basic group) amounted to 4.61. The same measure, in the same setting: to `CN(C)CCc1c[nH]c2ccc([O-])cc12` belongs 11.2.

As for `CCN(CC)CC(=N\[O-])/C(C)=N/O`, the pKa came out at 11.9 (acidic group) and 11.9 (basic group). For the setting “basic group”, `CN(C)C[C@@H]1[C@H](CO)[C@H]2C=C[C@@H]1C2` yielded a pKa of 9.54. Compound `CC(C)CNC(O)=S` gave a pKa (acidic group) of 0.38. Consider `COc1ccc(C=O)cc1C(=O)N[C@@H]1C[C@H]2CC[C@@H](C1)N2Cc1ccccc1`, for which the pKa (basic group) came to 8.74. For the setting “acidic group”, `CCOC(=O)COc1ccc(S(=O)(=O)c2ccc(O)c(C[NH3+])c2)c(Cl)c1Cl` gave a pKa of 6.67. For the compound `Cc1cc(NN)nc2ccccc12`, for the setting “basic group”, the pKa was determined as 8.35. Same read-out and setting: the same measure for `CCCCCSC(=N)c1ccccc1`: 8.5; for `NNCCOc1ccccc1`: 6.8. In the case of `O=S(=O)([O-])c1cc(O)c2cn[nH]c2c1`, the pKa (acidic group) worked out at 8.1. For the compound `[O-]c1nc([O-])c2[nH]nnc2[nH+]1`, the pKa (basic group) stood at 4.2. Still for that read-out and setting: to `CN1CC=CC1` belongs 9.92.

Consider `c1ccc(CNC(CC2CCCCC2)CC2CCCCC2)cc1`, for which the pKa (basic group) was 7.7. Still for that read-out and setting: the same measure for `c1ccc2c(c1)C1CCN2CC1`: 7.79; for `C[C@H]1C[NH2+][C@@H](C)CN1`: 5.23.

The values above are taken from the pKa sets of Baltruschat and Czodrowski (2020).
